Measured values reported in patent publication US20220030868A1, “FUNGICIDAL HALOMETHYL KETONES AND HYDRATES” (FMC CORPORATION, priority 2018, published 2022).

Experiments:
Phakopsora pachyrhizi = assay: Test A: test suspension sprayed on soybean seedlings one day before inoculation with Phakopsora pachyrhizi spores (Asian soybean rust), visual disease rating; assay type: in vivo; conditions: 100 = 100% disease control, 0 = no control
How it was run: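 Soybean seedlings were sprayed to run-off with test suspension (acetone 3% of volume, acetone/water 50/50, 250 ppm PEG400) and inoculated with rust spores one day later. Incubation: 24 h saturated atmosphere at 22° C, then 8 days growth chamber at 22° C; scores 0–100 relative to untreated controls.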

[1] = test system: Puccinia recondita f. sp. tritici; assay: Test B: test suspension sprayed on wheat seedlings one day before inoculation with Puccinia recondita f. sp. tritici spores (wheat leaf rust), disease rating; assay type: in vivo; conditions: 100 = 100% disease control, 0 = no control
How it was run: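 Wheat seedlings were sprayed to run-off with compound suspended in 50/50 acetone/water containing 250 ppm PEG400, then inoculated with P. recondita f. sp. tritici spores the next day. Plants were held 24 h in saturated air at 20 °C, then 6 days in a growth chamber at 20 °C. Disease control was rated 0–100% relative to controls, with some entries run at 50 or 10 ppm.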

| SMILES | Test A rating (disease control) (Phakopsora pachyrhizi; 10 ppm test suspension) [%] | Test B rating (disease control) ([1]; 10 ppm test suspension) [%] | also measured |
| --- | --- | --- | --- |
| O=C(NCC1CC1)c1cnc(Cc2ccc(OCC(O)(O)C(F)(F)F)cc2)s1 [Compound 256] | 73 | 0 | – |
| CCO/C(=C\Oc1ccc(C(=O)O)cc1)C(F)(F)F [compound 72] | – | – | Test A rating (disease control) (Phakopsora pachyrhizi; 50 ppm test suspension): 13%; Test B rating (disease control) ([1]; 50 ppm test suspension): 0% |
| O=C(OCC(F)(F)F)c1cnn(Cc2ccc(OCC(O)(O)C(F)(F)F)cc2)c1 [Compound 45] | 87 | 85 | – |
| CCOC(=O)C1=NOC(c2ccc(O/C=C(\OCC)C(F)(F)F)cc2)C1 (stereo not drawn) [compound 278] | – | – | Test A rating (disease control) (Phakopsora pachyrhizi; 50 ppm test suspension): 94%; Test B rating (disease control) ([1]; 50 ppm test suspension): 0% |
| CN(C)C(=O)C1=NOC(c2ccc(OCC(O)(O)C(F)(F)F)cc2)C1 (stereo not drawn) [Compound 41] | 92 | 23 | – |
| CCCCOC(=O)c1ccn(Cc2ccc(O/C=C(\OCC)C(F)(F)F)cc2)n1 [compound 356] | 100 | 0 | – |
| O=C(NCC1CC1)c1cnc(Cc2ccc(OCC(O)(O)C(F)(F)F)cc2)o1 [Compound 247] | 13 | 0 | – |
| CCO/C(=C\Oc1ccc(Cn2ccc(C(=O)OCC(C)=O)n2)cc1)C(F)(F)F [compound 359] | 100 | 0 | – |
| CCOC(=O)C1CCN(Cc2ccc(O/C=C(\OCC)C(F)(F)F)cc2)CC1 [compound 268] | 99 | 0 | – |
| CCNC(=O)OCc1ccc(O/C=C(\OCC)C(F)(F)F)cc1 [compound 196] | 0 | 74 | – |
| CON(Cc1ccc(OCC2(C(F)(F)F)OCCO2)cc1)C(=O)C1CC1 [compound 236] | 75 | 0 | – |
| CC(=O)COC(=O)c1cnn(Cc2ccc(OCC3(C(F)(F)F)OCCO3)cc2)c1 [compound 169] | 100 | 0 | – |
| C=CCOC(=O)c1ccc(O/C=C(\OCC)C(F)(F)F)cc1 [compound 74] | 0 | 0 | – |
| O=C(OCc1cccnc1)c1cnn(Cc2ccc(OCC3(C(F)(F)F)OCCO3)cc2)c1 [compound 200] | 100 | 0 | – |
| O=C(OCc1ccccn1)c1cnn(Cc2ccc(OCC3(C(F)(F)F)OCCO3)cc2)c1 [compound 199] | 100 | 0 | – |
| CCO/C(=C\Oc1ccc(CN2CCC(C#N)CC2)cc1)C(F)(F)F [compound 311] | 0 | 0 | – |
| CCOC(=O)c1cnn(Cc2ccc(OCC3(C(F)(F)F)OCC(C)(C)O3)cc2)c1 (stereo not drawn) [Compound 12, ethyl 1-[[4-[[4,4-dimethyl-2-(trifluoromethyl)-1,3-dioxolan-2-yl]methoxy]-phenyl]methyl]-1H-pyrazole-4-carboxylate] | – | – | pest or weed control at 10 ppm (Phakopsora pachyrhizi; Phakopsora pachyrhizi, 10 ppm test suspension): 13%; pest or weed control at 10 ppm ([1]; 10 ppm test suspension): 0% |
| CCO/C(=C\Oc1ccc(Cn2cc(C(=O)NC(C)C)cn2)cc1)C(F)(F)F [compound 118] | 0 | 0 | – |
| CCO/C(=C\Oc1ccc(Cn2cnc(C(=O)OC)c2)cc1)C(F)(F)F [compound 86] | 99 | 0 | – |
| CCO/C(=C\Oc1ccc(Cn2cc(Br)cn2)cc1)C(F)(F)F [compound 183] | 0 | 0 | – |
| CCO/C(=C\Oc1ccc(Cn2ccc(C(=O)OCC(C)C)n2)cc1)C(F)(F)F [compound 357] | 100 | 9 | – |
| CCOC(=O)c1cnn(CCCc2ccc(OCC3(C(F)(F)F)OCCO3)cc2)c1 [compound 296] | 0 | 0 | – |
| CCOC(=O)c1cnn(Cc2ccc(O/C=C(\OCC(F)(F)F)C(F)(F)F)cc2)c1 [compound 298] | 0 | 0 | – |
| COC(=O)c1ccc(OCC(O)(O)C(F)(F)F)cc1 [Compound 229, methyl 4-(3,3,3-trifluoro-2,2-dihydroxypropoxy)phenylcarboxylate] | – | – | pest or weed control at 50 ppm (Phakopsora pachyrhizi; Phakopsora pachyrhizi, 50 ppm test suspension): 99%; pest or weed control at 50 ppm ([1]; 50 ppm test suspension): 100% |
| CCOC(=O)c1cnn(Cc2ccc(O/C=C(\OC)C(F)(F)F)cc2)c1 [compound 53] | – | – | Test A rating (disease control) (Phakopsora pachyrhizi; 50 ppm test suspension): 100%; Test B rating (disease control) ([1]; 50 ppm test suspension): 67% |
| CCO/C(=C\Oc1ccc(S(=O)(=O)N(C)C)cc1)C(F)(F)F [compound 61] | 0 | 0 | – |
| CCS(=O)(=O)Cc1ccc(OCC(O)(O)C(F)(F)F)cc1 [Compound 29] | 84 | 28 | – |
